Experimental data published in patent publication US8273769B2, “Phenoxy acetic acid derivatives” (Merck Serono SA, priority 2009, dated 2012).

Tests used:
[1] = In vivo pharmacokinetic evaluation in rat; parameters: species or system Sprague Dawley male rats
Protocol: In order to study the pharmacokinetic (PK) profile of test compounds in vivo, Sprague Dawley male rats or C57BL/6 female mice were dosed intravenously or after oral gavage. For both species, test compounds were dosed in solution at 1 mg/kg for i.v. route (10% ethanol, 10% N,N-dimethylacetamide, 30% propylene glycol, 50% water, v/v) and in suspension at 5 mg/kg (0.5% carboxymethylcellulose suspension, containing 0.25% Tween 20 in water) for oral gavage. PK profile in rat was obtained from 3 animals per dosing route and mouse PK profile was determined from 3 animals for each time points. The volume of administration was 2 mL/kg for i.v. dosing in both species and either 5 mL/kg (rat) or 10 mL/kg (mouse) for oral gavage. Blood samples (100 μL/time point) were collected at 0.083 (5 min), 0.25, 0.5, 1, 4, 7 and 24 hours post-dose for i.v. dosing, and at 0.5, 1, 4, 7 and 24 h for oral dosing, into heparin-Li+ containing tubes. For rats, all blood samples were collected trough a catheter in the carotid artery (placed in the artery the day before the experiment), under light isoflurane anesthesia, and stored on ice until centrifugation and plasma isolation. […] For bioanalysis, samples were processed by protein precipitation (acetonitrile, formic acid 0.1%, addition of 3 volumes) after addition of one internal standard and analysed using a sensitive and selective LC/MS/MS method. An aliquot of the resulting supernatant was subject to LC/MS/MS analysis using a reverse phase column (Waters Xterra, C8, (3.5 μm particle size, 2.1×50 mm) and a short gradient (1 min) from (Solvent A) 85% water, 15% acetonitrile and 0.1% formic acid to (Solvent B) 90% acetonitrile, 10% water and 0.1% formic acid followed by isocratic conditions of Solvent B for 3.5 min at 0.4 mL/min. Column effluent was monitored using a Sciex API 4000 triple quadrupole mass spectrometer with a Turbo V electrospray ion source. Unknown concentrations of test compounds were determined using a calibration curve ranging from 1 to 3000 ng/mL.

[2] = system: OVA-induced lung eosinophilia in mice; test: OVA-induced lung eosinophilia in mice; assay type: in vivo, BALB/c mice; settings: BAL fluid, oral gavage
Protocol: BALB/c mice (6-8 weeks old) were immunized with ovalbumin (10 μg i.p) on day 0 and 7. In order to elicit a local inflammatory response in the lung, mice were challenged between day's 15-17 with a nebulised solution of ovalbumin (10 μg/ml; De Vilibiss Ultraneb 2000, once daily for 30 min during the 3 days). On each separate day between 15 and 17 each animal received via oral gavage the test compound, at t−1 h and t+7 h with respect to OVA exposure at t=0 h. Eight hours after the final OVA challenge, bronchoalveolar lavage (BAL) was then carried out. Total cell numbers in the BAL fluid samples were measured using a haemocytometer. Cytospin smears of the BAL fluid samples were prepared by centrifugation at 1200 rpm for 2 min at room temperature and stained using a DiffQuik stain system (Dade Behring) for differential cell counts. […]

Oral bioavailability [1] [%] | Clearance iv (1 mg/Kg) ([1]; i.v. 1 mg/Kg) [mL/min/kg] | AUC ([1]; male, Sprague Dawley, plasma, oral gavage 5 mg/Kg) [ng·h/mL] | SMILES | % inhibition eosinophils (mean ± s.e.m.) ([2]; dose 3 mg/kg) [%] | % inhibition total cells (mean ± s.e.m.) ([2]; dose 3 mg/kg) [%] | % inhibition eosinophils (mean ± s.e.m.) ([2]; dose 10 mg/kg) [%] | % inhibition total cells (mean ± s.e.m.) ([2]; dose 10 mg/kg) [%] | % inhibition eosinophils (mean ± s.e.m.) ([2]; dose 30 mg/kg) [%] | % inhibition total cells (mean ± s.e.m.) ([2]; dose 30 mg/kg) [%]
28 | 6.7 | 3700 | CCCS(=O)(=O)c1cccc(C#Cc2cc(Cl)ccc2OCC(=O)O)c1 [Example 17, (4-chloro-2-{[3-(propylsulfonyl)phenyl]ethynyl}phenoxy)acetic acid] |  |  |  |  |  | 
 |  |  | CCCS(=O)(=O)c1ccc(F)c(C#Cc2cc(Cl)ccc2OCC(=O)O)c1 [Example 89, (4-chloro-2-{[2-fluoro-5-(propylsulfonyl)phenyl]ethynyl}phenoxy)acetic acid] | 19 ± 18 | 12 ± 15 | 27 ± 10 | 19 ± 8 | 55 ± 11 | 44 ± 10
 |  |  | CCCS(=O)(=O)c1ccc(C)c(C#Cc2cc(Cl)ccc2OCC(=O)O)c1 [Example 38, (4-chloro-2-{[2-methyl-5-(propylsulfonyl)phenyl]ethynyl}phenoxy)acetic acid] | 29 ± 14 | 21 ± 13 | 54 ± 16 | 42 ± 14 | 81 ± 7 | 67 ± 8
